Laboratory results published in patent publication US5158969A, “Indole derivatives as potassium channel blockers” (NeuroSearch A/S, priority 1991, dated 1992).

What was measured:
BKCa channel [1] = assay: Single channel patch-clamp, inside-out patches of bovine aortic smooth muscle cells; assay type: cell-based; settings: 20 μM
Protocol: (§1) All electrophysiological experiments were performed with patch-clamp technique (Hamill et al., Pflugers Arch. 391, 85-100 (1981). The ion composition of the internal solution was (in mM) 4 NaCl, 140 KCl, 1 CaCl2, 1 MgCl2, 2 EGTA, 10 HEPES and the external solution contained 140 NaCl, 4 Kcl, 2 CaCl2, 1 MgCl2 and 10 HEPES.

[2] = test system: immobility of female NMRI mice; assay: Tail suspension test; assay type: in vivo; settings: 30 min before test, 6 min suspension
Protocol: 1-(4-methoxyphenyl)-indole has been studied in the socalled tail suspension test as described by L. Steru et al., Prog. Neuro-Psychopharmacol. Biol. Psychiatry 11, 659-671 (1987). Female NMRI mice (20-25 g, 10 mice per dose) were suspended by the tail with adhesive tape for 6 min. The mice alternated between phases of activity (trying to escape) and immobility (despair). The duration of immobility was recorded manually. Saline, 1-(4-methoxyphenyl)-indole or desipramine were administered i.p. 30 min before the start of the test.

[3] = test system: social recognition memory of adult male Wistar rats; assay: Social recognition model; assay type: in vivo, rat
Protocol: In short, adult male Wistar rats (350 g) were housed individually in normal transparent plexiglas cages. After a habituation period of at least 24 hours a juvenile male Wistar rat (25-30 days old) was introduced in the cage in a 5 min period (first exposure). A second exposure of the same juvenile rat for another 5 min period was performed either 5 min later or 120 min later. In one case, another juvenile rat was introduced 120 min after an exposure of a juvenile rat. The adult rat was administered either saline or different doses of 1-(4-methoxyphenyl)-indole i.p. 15 min before the first exposure of the juvenile rat.
In both sessions (1st and 2nd exposure period) the total duration of investigatory behaviour consisting of sniffing, nosing and grooming performed by the adult rat was noted.
The adult rat (n=10-20) used generally 100-110 sec investigating the juvenile rat on the first exposure. […] The memory seems basically to be based on recognition of urine odour.

BKCa channel [4] = assay: Single channel patch-clamp in pancreatic β-cells; assay type: cell-based
Protocol: as §1

SMILES | block of the BKCa channel (BKCa channel [1]) | duration of immobility ([2]; doses between 10 and 100 mg/kg i.p.) | investigatory behaviour on the second exposure with a new (unknown) juvenile rat ([3]; 30 mg/kg i.p. 15 min before first exposure, new juvenile rat) | investigatory behaviour on the first exposure ([3]; 7.5-30 mg/kg i.p. 15 min before first exposure) | investigatory behaviour on the second exposure of the same juvenile rat ([3]; 7.5-30 mg/kg i.p., second exposure 120 min later, same juvenile rat) | block of the BKCa channel (BKCa channel [4]) | duration of immobility ([2]; doses between 1 and 30 mg/kg i.p.)
COc1ccc(-n2ccc3ccccc32)cc1 [1-(4-methoxyphenyl)-indole] | potently at 20 μM blocked the BKCa channel | inhibited the immobility dose-dependently | normal investigatory behaviour was seen | did not interfere with the adult rats investigatory behaviour | significant decrease in investigatory behaviour | potently blocked the BKCa channel | –
CNCCCN1c2ccccc2CCc2ccccc21 [Desipramine, reference compound] | – | – | – | – | – | – | reduced the immobility dose-dependently
